Experimental data published in PMC9186362, “Design and biological evaluation of substituted 5,7-dihydro-6H-indolo[2,3-c]quinolin-6-one as novel selective Haspin inhibitors” (Journal of Enzyme Inhibition and Medicinal Chemistry, 2022).

What was measured:
Assay in all cases: SelectScreen ZLYTE
Type in all cases: biochemical
INSR = INSR (Homo sapiens, UniProt P06213); conditions: ATP Km, read-out: Percentage of inhibition
Method in brief: (§1)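 A kinome-wide single-concentration screen (1 μM) supplied these numbers, given as percent inhibition.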

DYRK4 = target: T1, DYRK4 (Homo sapiens, UniProt Q9NR20); conditions: ATP Km, read-out: Percentage of inhibition
T1 construct: purchased Life Technologies
Method in brief: as §1

STK3 (MST2) = target: T2, STK3 (MST2) (Homo sapiens, UniProt Q13188); conditions: ATP Km, read-out: Percentage of inhibition
T2 construct: purchased Life Technologies (SelectScreen Whole Panel)
Method in brief: as §1

LTK (TYK1) = target: T3, LTK (TYK1) (Homo sapiens, UniProt P29376); conditions: ATP Km, read-out: Percentage of inhibition
T3 construct: purchased Life Technologies (SelectScreen Whole Panel service)
Method in brief: as §1

NEK9 = target: T4, NEK9 (Homo sapiens, UniProt Q8TD19); conditions: ATP Km, read-out: Percentage of inhibition
T4 construct: purchased Life Technologies
Method in brief: as §1

MYLK2 (skMLCK) = MYLK2 (skMLCK) (Homo sapiens, UniProt Q9H1R3); conditions: ATP Km, read-out: Percentage of inhibition
Method in brief: as §1

ABL1 G250E = target: T5, ABL1 G250E (Homo sapiens, UniProt P00519, G250E); conditions: ATP Km, read-out: Percentage of inhibition
T5 construct: purchased Life Technologies (SelectScreen Whole Panel service)
Method in brief: as §1

RET S891A = target: T6, RET S891A (Homo sapiens, UniProt P07949, S891A); conditions: ATP Km, read-out: Percentage of inhibition
T6 construct: purchased Life Technologies
Method in brief: as §1

GRK7 = target: T7, GRK7 (Homo sapiens, UniProt Q8WTQ7); conditions: ATP Km, read-out: Percentage of inhibition
T7 construct: purchased Life Technologies (SelectScreen service)
Method in brief: as §1

CSNK1G3 (CK1 gamma 3) = target: T8, CSNK1G3 (CK1 gamma 3) (Homo sapiens, UniProt Q9Y6M4); conditions: ATP Km, read-out: Percentage of inhibition
T8 construct: purchased Life Technologies
Method in brief: as §1

PKN1 (PRK1) = target: T9, PKN1 (PRK1) (Homo sapiens, UniProt Q16512); conditions: ATP Km, read-out: Percentage of inhibition
T9 construct: purchased Life Technologies
Method in brief: as §1

MARK3 = target: T10, MARK3 (Homo sapiens, UniProt P27448); conditions: ATP Km, read-out: Percentage of inhibition
T10 construct: purchased Life Technologies
Method in brief: as §1

PRKCZ (PKC zeta) = PRKCZ (PKC zeta) (Homo sapiens, UniProt Q05513); conditions: ATP Km, read-out: Percentage of inhibition
Method in brief: as §1

RPS6KA3 (RSK2) = target: T11, RPS6KA3 (RSK2) (Homo sapiens, UniProt P51812); conditions: ATP Km, read-out: Percentage of inhibition
T11 construct: purchased Life Technologies (SelectScreen service)
Method in brief: as §1

STK23 (MSSK1) = target: T12, STK23 (MSSK1) (Homo sapiens, UniProt Q9UPE1); conditions: ATP Km, read-out: Percentage of inhibition
T12 construct: purchased Life Technologies
Method in brief: as §1

RET A883F = target: T13, RET A883F (Homo sapiens, UniProt P07949, A883F); conditions: ATP Km, read-out: Percentage of inhibition
T13 construct: purchased Life Technologies (SelectScreen service)
Method in brief: as §1

TEK (Tie2) = target: T14, TEK (Tie2) (Homo sapiens, UniProt Q02763); conditions: ATP Km, read-out: Percentage of inhibition
T14 construct: purchased Life Technologies (SelectScreen Whole Panel service)
Method in brief: as §1

MINK1 = MINK1 (Homo sapiens, UniProt Q8N4C8); conditions: ATP Km, read-out: Percentage of inhibition
Method in brief: as §1

CDC42 BPA (MRCKA) = CDC42 BPA (MRCKA) (Homo sapiens, UniProt Q5VT25); conditions: ATP Km, read-out: Percentage of inhibition
Method in brief: as §1

[1] = target: MAPK14 (p38 alpha) Direct (Homo sapiens, UniProt Q16539); conditions: ATP Km, read-out: Percentage of inhibition
Method in brief: as §1

IKBKE (IKK epsilon) = target: T15, IKBKE (IKK epsilon) (Homo sapiens, UniProt Q14164); conditions: ATP Km, read-out: Percentage of inhibition
T15 construct: purchased Life Technologies (SelectScreen Whole Panel service)
Method in brief: as §1

PLK3 = target: T16, PLK3 (Homo sapiens, UniProt Q9H4B4); conditions: ATP Km, read-out: Percentage of inhibition
T16 construct: purchased Life Technologies (SelectScreen service)
Method in brief: as §1

MAPK8 (JNK1) = target: T17, MAPK8 (JNK1) (Homo sapiens, UniProt P45983); conditions: ATP 10 µM, read-out: Percentage of inhibition
T17 construct: purchased Life Technologies (SelectScreen Whole Panel service)
Method in brief: as §1

MAPK11 (p38 beta) = target: T18, MAPK11 (p38 beta) (Homo sapiens, UniProt Q15759); conditions: ATP Km, read-out: Percentage of inhibition
T18 construct: purchased Life Technologies (SelectScreen)
Method in brief: as §1

RPS6KA1 (RSK1) = target: T19, RPS6KA1 (RSK1) (Homo sapiens, UniProt Q15418); conditions: ATP Km, read-out: Percentage of inhibition
T19 construct: purchased Life Technologies (SelectScreen service)
Method in brief: as §1

PRKACA (PKA) = target: T20, PRKACA (PKA) (Homo sapiens, UniProt P17612); conditions: ATP Km, read-out: Percentage of inhibition
T20 construct: purchased Life Technologies (SelectScreen)
Method in brief: as §1

CAMK2B (CaMKII beta) = target: T21, CAMK2B (CaMKII beta) (Homo sapiens, UniProt Q13554); conditions: ATP Km, read-out: Percentage of inhibition
T21 construct: purchased Life Technologies (SelectScreen Whole Panel service)
Method in brief: as §1

MAPKAPK3 = target: T22, MAPKAPK3 (Homo sapiens, UniProt Q16644); conditions: ATP Km, read-out: Percentage of inhibition
T22 construct: purchased Life Technologies
Method in brief: as §1

BRSK1 (SAD1) = target: T23, BRSK1 (SAD1) (Homo sapiens, UniProt Q8TDC3); conditions: ATP Km, read-out: Percentage of inhibition
T23 construct: purchased Life Technologies (SelectScreen Whole Panel service)
Method in brief: as §1

FYN = target: T24, FYN (Homo sapiens, UniProt P06241); conditions: ATP Km, read-out: Percentage of inhibition
T24 construct: purchased Life Technologies (SelectScreen Whole Panel)
Method in brief: as §1

TXK = TXK (Homo sapiens, UniProt P42681); conditions: ATP Km, read-out: Percentage of inhibition
Method in brief: as §1

LYN B = LYN B (Homo sapiens, UniProt P07948); conditions: ATP Km, read-out: Percentage of inhibition
Method in brief: as §1

JAK3 = target: T25, JAK3 (Homo sapiens, UniProt P52333); conditions: ATP Km, read-out: Percentage of inhibition
T25 construct: purchased Life Technologies (SelectScreen service)
Method in brief: as §1

GRK5 = target: T26, GRK5 (Homo sapiens, UniProt P34947); conditions: ATP Km, read-out: Percentage of inhibition
T26 construct: purchased Life Technologies (SelectScreen Whole Panel service)
Method in brief: as §1

IKBKB (IKK beta) = target: T27, IKBKB (IKK beta) (Homo sapiens, UniProt O14920); conditions: ATP Km, read-out: Percentage of inhibition
T27 construct: purchased Life Technologies (SelectScreen Whole Panel)
Method in brief: as §1

AKT3 (PKB gamma) = target: T28, AKT3 (PKB gamma) (Homo sapiens, UniProt Q9Y243); conditions: ATP Km, read-out: Percentage of inhibition
T28 construct: purchased Life Technologies
Method in brief: as §1

YES1 = YES1 (Homo sapiens, UniProt P07947); conditions: ATP Km, read-out: Percentage of inhibition
Method in brief: as §1

BMX = BMX (Homo sapiens, UniProt P51813); conditions: ATP Km, read-out: Percentage of inhibition
Method in brief: as §1

PTK6 (Brk) = PTK6 (Brk) (Homo sapiens, UniProt Q13882); conditions: ATP Km, read-out: Percentage of inhibition
Method in brief: as §1

LYN B, sequence (P07948 1-491 isoform P07948-2): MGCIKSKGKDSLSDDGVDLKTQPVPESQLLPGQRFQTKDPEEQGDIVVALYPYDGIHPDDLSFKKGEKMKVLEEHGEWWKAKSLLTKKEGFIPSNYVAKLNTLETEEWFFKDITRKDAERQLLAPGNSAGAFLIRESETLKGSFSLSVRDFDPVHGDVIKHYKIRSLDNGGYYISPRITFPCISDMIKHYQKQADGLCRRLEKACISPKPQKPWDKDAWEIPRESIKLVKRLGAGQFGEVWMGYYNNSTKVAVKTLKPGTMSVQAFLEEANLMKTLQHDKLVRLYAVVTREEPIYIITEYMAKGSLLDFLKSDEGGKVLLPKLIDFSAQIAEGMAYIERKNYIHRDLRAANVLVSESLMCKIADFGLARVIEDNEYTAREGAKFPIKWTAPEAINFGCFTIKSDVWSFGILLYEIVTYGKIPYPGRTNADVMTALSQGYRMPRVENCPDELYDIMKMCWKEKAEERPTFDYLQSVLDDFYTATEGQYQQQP
INSR, sequence (P06213 28-1382): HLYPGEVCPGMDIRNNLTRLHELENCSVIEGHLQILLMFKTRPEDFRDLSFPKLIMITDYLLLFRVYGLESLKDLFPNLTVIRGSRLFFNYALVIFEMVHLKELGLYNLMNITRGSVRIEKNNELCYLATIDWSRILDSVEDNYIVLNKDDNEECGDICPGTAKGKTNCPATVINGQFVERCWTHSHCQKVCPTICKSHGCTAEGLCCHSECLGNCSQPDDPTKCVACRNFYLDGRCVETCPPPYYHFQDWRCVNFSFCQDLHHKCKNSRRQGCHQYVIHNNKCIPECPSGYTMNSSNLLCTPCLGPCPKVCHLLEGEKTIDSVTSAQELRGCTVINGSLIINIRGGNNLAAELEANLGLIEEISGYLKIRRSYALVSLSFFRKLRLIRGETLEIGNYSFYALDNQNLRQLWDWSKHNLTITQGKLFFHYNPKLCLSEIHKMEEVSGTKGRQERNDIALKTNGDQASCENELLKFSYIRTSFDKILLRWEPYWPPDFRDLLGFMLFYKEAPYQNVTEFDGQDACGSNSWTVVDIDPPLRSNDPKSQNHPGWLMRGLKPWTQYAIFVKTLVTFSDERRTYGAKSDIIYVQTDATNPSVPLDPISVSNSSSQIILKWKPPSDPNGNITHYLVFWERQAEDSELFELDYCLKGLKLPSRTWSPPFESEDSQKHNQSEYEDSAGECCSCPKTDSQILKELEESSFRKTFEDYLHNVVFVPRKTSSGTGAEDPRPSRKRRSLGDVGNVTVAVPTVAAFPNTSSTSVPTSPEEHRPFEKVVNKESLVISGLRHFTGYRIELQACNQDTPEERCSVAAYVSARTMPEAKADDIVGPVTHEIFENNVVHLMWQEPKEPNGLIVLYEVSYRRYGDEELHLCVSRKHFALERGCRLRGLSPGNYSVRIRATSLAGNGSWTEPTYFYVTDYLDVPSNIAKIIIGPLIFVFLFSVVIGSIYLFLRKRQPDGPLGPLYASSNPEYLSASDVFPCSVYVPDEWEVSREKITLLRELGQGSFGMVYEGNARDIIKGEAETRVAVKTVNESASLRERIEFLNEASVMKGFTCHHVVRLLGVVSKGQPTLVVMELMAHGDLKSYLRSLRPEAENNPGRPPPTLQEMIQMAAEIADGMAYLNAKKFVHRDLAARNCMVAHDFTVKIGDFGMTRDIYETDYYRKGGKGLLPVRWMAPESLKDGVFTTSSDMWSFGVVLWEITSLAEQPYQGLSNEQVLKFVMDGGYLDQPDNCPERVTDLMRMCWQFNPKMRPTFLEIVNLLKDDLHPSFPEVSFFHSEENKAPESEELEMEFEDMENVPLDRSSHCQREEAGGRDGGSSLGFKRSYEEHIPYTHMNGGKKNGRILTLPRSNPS
T19 sequence (Q15418 whole entry): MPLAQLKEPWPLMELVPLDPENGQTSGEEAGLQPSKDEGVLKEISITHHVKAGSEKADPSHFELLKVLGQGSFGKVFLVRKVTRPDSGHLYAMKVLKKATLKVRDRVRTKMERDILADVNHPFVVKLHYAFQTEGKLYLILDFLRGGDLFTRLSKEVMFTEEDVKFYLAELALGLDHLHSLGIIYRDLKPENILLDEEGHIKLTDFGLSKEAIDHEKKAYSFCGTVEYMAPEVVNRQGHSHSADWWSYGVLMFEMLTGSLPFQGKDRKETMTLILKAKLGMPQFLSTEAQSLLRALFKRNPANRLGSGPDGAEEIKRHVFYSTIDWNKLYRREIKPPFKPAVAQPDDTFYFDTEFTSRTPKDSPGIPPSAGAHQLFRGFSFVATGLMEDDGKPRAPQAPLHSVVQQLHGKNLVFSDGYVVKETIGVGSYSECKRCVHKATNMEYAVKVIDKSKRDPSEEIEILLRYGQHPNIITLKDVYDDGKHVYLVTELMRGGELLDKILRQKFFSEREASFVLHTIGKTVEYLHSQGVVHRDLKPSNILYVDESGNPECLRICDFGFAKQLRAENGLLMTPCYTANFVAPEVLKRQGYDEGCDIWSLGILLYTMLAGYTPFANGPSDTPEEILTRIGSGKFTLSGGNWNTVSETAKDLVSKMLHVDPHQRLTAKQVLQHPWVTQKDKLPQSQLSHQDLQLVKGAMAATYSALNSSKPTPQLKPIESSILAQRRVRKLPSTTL
T6 sequence (P07949 29-1114 S891A): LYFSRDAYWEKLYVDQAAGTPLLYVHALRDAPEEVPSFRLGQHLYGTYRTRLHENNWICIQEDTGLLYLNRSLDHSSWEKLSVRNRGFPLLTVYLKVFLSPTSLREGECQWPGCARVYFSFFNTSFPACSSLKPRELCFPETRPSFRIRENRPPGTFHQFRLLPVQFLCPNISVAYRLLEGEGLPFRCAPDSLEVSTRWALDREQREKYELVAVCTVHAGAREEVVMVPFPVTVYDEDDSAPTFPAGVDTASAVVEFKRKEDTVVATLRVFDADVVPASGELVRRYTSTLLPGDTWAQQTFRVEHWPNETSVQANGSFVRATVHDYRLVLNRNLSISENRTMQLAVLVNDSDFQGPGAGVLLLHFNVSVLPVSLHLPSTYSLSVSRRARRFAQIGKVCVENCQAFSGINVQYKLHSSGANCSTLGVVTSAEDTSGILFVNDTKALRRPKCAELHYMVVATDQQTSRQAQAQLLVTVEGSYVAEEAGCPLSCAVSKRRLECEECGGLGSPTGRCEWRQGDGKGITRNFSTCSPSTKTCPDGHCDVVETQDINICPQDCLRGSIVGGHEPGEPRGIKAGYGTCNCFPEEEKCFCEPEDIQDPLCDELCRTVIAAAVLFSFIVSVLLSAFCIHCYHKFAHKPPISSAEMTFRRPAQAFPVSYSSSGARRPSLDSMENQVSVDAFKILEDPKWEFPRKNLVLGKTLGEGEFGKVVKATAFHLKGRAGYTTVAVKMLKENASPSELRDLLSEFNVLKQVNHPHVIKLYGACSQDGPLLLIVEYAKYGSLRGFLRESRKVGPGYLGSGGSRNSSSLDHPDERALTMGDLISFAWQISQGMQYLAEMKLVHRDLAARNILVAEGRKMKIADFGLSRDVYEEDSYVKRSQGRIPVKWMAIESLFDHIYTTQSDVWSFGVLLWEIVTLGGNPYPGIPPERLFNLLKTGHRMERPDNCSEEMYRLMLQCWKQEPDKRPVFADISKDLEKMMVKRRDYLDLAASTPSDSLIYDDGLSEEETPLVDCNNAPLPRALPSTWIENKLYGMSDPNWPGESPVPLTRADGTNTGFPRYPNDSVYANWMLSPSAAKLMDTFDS
T21 sequence (Q13554 whole entry): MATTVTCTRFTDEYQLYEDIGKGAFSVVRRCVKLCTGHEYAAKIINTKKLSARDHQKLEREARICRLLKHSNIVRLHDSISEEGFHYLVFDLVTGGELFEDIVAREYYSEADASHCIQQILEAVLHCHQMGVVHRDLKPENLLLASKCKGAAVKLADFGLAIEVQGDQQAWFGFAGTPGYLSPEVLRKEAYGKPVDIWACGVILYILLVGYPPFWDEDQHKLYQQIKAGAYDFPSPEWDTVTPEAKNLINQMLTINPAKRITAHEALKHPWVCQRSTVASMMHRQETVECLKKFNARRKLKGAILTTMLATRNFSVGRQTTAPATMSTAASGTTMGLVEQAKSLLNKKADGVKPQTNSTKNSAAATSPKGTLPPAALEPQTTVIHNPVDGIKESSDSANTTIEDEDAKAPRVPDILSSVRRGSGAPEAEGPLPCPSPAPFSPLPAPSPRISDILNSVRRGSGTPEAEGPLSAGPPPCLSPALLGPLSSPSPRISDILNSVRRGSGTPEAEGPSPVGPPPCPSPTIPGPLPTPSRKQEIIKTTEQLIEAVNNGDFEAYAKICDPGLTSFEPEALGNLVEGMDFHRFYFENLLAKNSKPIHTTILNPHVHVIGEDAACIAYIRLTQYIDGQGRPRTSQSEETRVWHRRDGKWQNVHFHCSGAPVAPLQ
T12 sequence (Q9UPE1 whole entry): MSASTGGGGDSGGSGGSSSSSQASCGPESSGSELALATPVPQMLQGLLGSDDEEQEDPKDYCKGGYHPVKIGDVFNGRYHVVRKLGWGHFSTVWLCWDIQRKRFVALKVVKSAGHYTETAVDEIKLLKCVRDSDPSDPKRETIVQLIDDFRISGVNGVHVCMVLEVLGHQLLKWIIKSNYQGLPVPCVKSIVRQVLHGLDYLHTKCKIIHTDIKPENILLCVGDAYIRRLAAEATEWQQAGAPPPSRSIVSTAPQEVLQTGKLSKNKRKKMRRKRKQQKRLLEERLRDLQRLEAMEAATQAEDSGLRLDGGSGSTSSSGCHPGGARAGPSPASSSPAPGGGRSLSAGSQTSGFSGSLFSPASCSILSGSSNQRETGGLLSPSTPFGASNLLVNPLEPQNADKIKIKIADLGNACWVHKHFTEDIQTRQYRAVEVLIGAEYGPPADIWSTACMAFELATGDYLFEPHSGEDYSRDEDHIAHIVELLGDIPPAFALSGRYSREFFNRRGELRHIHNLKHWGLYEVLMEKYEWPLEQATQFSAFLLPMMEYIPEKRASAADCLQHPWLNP
T13 sequence (P07949 29-1114 A883F): as the sequence (P07949 29-1114 S891A) above, with A855F, A863S counted along it

COc1ccc2[nH]c3c(=O)[nH]c4ccc(O)cc4c3c2c1 [Compound 55, 2-Hydroxy-10-methoxy-5,7-dihydro-6H-indolo[2,3-c]quinolin-6-one]
inhibition at 1 µM (INSR): 21%
inhibition at 1 µM (DYRK4): 42%
inhibition at 1 µM (STK3 (MST2)): 99%
inhibition at 1 µM (LTK (TYK1)): 16%
inhibition at 1 µM (NEK9): 4%
inhibition at 1 µM (MYLK2 (skMLCK)): 61%
inhibition at 1 µM (ABL1 G250E): 48%
inhibition at 1 µM (RET S891A): 96%
inhibition at 1 µM (GRK7): 74%
inhibition at 1 µM (CSNK1G3 (CK1 gamma 3)): 28%
inhibition at 1 µM (PKN1 (PRK1)): 4%
inhibition at 1 µM (MARK3): 31%
inhibition at 1 µM (PRKCZ (PKC zeta)): 7%
inhibition at 1 µM (RPS6KA3 (RSK2)): 83%
inhibition at 1 µM (STK23 (MSSK1)): 4%
inhibition at 1 µM (RET A883F): 85%
inhibition at 1 µM (TEK (Tie2)): 13%
inhibition at 1 µM (MINK1): 66%
inhibition at 1 µM (CDC42 BPA (MRCKA)): 13%
inhibition at 1 µM [1]: 6%
inhibition at 1 µM (IKBKE (IKK epsilon)): 17%
inhibition at 1 µM (PLK3): 25%
inhibition at 1 µM (MAPK8 (JNK1)): 15%
inhibition at 1 µM (MAPK11 (p38 beta)): 8%
inhibition at 1 µM (RPS6KA1 (RSK1)): 89%
inhibition at 1 µM (PRKACA (PKA)): 8%
inhibition at 1 µM (CAMK2B (CaMKII beta)): 12%
inhibition at 1 µM (MAPKAPK3): 3%
inhibition at 1 µM (BRSK1 (SAD1)): 45%
inhibition at 1 µM (FYN): 49%
inhibition at 1 µM (TXK): 22%
inhibition at 1 µM (LYN B): 67%
inhibition at 1 µM (JAK3): 79%
inhibition at 1 µM (GRK5): 18%
inhibition at 1 µM (IKBKB (IKK beta)): 55%
inhibition at 1 µM (AKT3 (PKB gamma)): 3%
inhibition at 1 µM (YES1): 61%
inhibition at 1 µM (BMX): 14%
inhibition at 1 µM (PTK6 (Brk)): 19%
